This data set addresses T1, BRN2 (Homo sapiens, UniProt P20265).
T1 sequence (P20265 1-443): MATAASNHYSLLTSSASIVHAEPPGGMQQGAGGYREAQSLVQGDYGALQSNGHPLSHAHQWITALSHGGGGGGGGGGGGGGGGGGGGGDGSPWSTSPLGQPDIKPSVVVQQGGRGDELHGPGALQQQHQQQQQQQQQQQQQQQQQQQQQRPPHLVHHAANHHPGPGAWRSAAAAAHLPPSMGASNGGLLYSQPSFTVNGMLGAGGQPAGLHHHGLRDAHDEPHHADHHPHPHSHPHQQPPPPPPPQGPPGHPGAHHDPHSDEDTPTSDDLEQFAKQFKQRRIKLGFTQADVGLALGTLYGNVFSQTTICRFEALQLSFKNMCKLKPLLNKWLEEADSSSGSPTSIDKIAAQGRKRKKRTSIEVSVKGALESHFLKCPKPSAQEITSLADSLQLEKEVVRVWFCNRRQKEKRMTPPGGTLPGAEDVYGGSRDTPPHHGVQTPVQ
The data set is described as follows: cell-based. Conditions: for % BRN2 Inhibition (10 μM): 10 μM compound; for % BRN2 Inhibition (10 μM) / % BRN2 Inhibition (30 μM): 24 hours, 42D^ENZR cells stably expressing BRN2-luciferase reporter; for % BRN2 Inhibition (10 μM) / % BRN2 Inhibition (30 μM) / inhibition at 10 µM / inhibition at 30 µM: negative = activation; for % BRN2 Inhibition (30 μM): 30 μM compound; for inhibition at 10 µM: read-out: % BRN2 Inhibition (10 μM), 10 μM compound, 24 hours, 42D^ENZR cells stably expressing BRN2-luciferase reporter; for inhibition at 30 µM: read-out: % BRN2 Inhibition (30 μM), 30 μM compound, 24 hours, 42D^ENZR cells stably expressing BRN2-luciferase reporter; for cell death (30 μM): cell death = severe toxicity at a low dose. An excerpt:
Decreased expression of luciferase protein is validated via western blot to confirm downregulation and avoid false positive molecules that inhibit luciferase protein activity and not BRN2-drive luciferase expression. Molecules are prioritized by their inhibition potency to measure direct interaction with BRN2 in Step 2.
In TABLES 1 and 2, when a single value is mentioned in columns Met Stab % and T½, it refers to compound's stability in MLM and when two values are given they represent HLM/MLM. There is a distinction in TABLES 1 and 2 difference between “Active” and “Specific” or “Specificity”. Compounds are first tested to quantify inhibition of BRN2 transcriptional activity in a luciferase assay to determine “Activity” at […] and 30 μM concentrations. […] Where data is not available “na” is inserted. Where data has yet to be calculated the notation “nc” is used.

Usually inhibition stands for the relative decrease from the control value, in per cent.

With `CCn1c(-c2csc(-c3ccccn3)n2)nc2ccccc21` [VPC-18-15], the “% BRN2 Inhibition (10 μM)” value was “insoluble” and the “% BRN2 Inhibition (30 μM)” value was “insoluble”.
In the case of `Cn1c(-c2ccc(-c3ccccc3)o2)nc2ccc([N+](=O)[O-])cc21` [VPC-18-30, 1-Methyl-6-nitro-2-(5-phenylfuran-2-yl)-1H-benzo[d]imidazole], the inhibition at 10 µM stood at 2.63% and the inhibition at 30 µM turned out to be 17.4%.
Consider `Cn1c(-c2ccc(-c3ccc(Br)cc3Cl)o2)nc2ccc(C(F)(F)F)cc21` [VPC-18-34, 2-(5-(4-Bromo-2-chlorophenyl)furan-2-yl)-1-methyl-6-(trifluoromethyl)-1H-benzo[d]imidazole], for which the inhibition at 10 µM was -0.86% and the inhibition at 30 µM was 46.7%.
The matching figures for `Cn1c(-c2csc(-c3ccccc3)n2)nc2ccc(Cl)cc21` [VPC-18-37, 4-(6-Chloro-1-methyl-1H-benzo[d]imidazol-2-yl)-2-phenylthiazole]: -14.5% and -58.7%.
For the compound `c1ccc2oc(-c3csc(N4CC5CC4CO5)n3)cc2c1` (stereo not shown) [VPC-18-38, 5-(4-(Benzofuran-2-yl)thiazol-2-yl)-2-oxa-5-azabicyclo[2.2.1]heptane], the inhibition at 10 µM is -51.2% and the inhibition at 30 µM was 67%.
In the case of `Cn1c(-c2ccc(-c3ccc(F)cc3F)o2)nc2ccc([N+](=O)[O-])cc21` [VPC-18-39, 2-(5-(2,4-Difluorophenyl)furan-2-yl)-1-methyl-6-nitro-1H-benzo[d]imidazole], the inhibition at 10 µM is -150% and the inhibition at 30 µM is -63.1%.
Turning to `O=[N+]([O-])c1ccc2nc(-c3ccc(-c4ccc(Br)cc4Cl)o3)[nH]c2c1` [VPC-18-40, 2-(5-(4-Bromo-2-chlorophenyl)furan-2-yl)-6-nitro-1H-benzo[d]imidazole], the inhibition at 10 µM is -32.7% and the inhibition at 30 µM is -84.1%.
As to `Cn1c(-c2ccc(-c3cncnc3)o2)nc2ccccc21` [VPC-18-43, 1-Methyl-2-(5-(pyrimidin-5-yl)furan-2-yl)-1H-benzo[d]imidazole], the inhibition at 10 µM was -124% and the inhibition at 30 µM was -83%.
For the compound `O=[N+]([O-])c1ccc(-c2nc(-c3cc4ccccc4o3)cs2)cc1` [VPC-18-44, 4-(Benzofuran-2-yl)-2-(4-nitrophenyl)thiazole], the inhibition at 10 µM was -45% and the inhibition at 30 µM is -104%.
The matching figures for `NS(=O)(=O)c1ccc2nc(-c3csc(-c4ccccc4F)n3)[nH]c2c1` [VPC-18-46, 2-(2-(2-Fluorophenyl)thiazol-4-yl)-1H-benzo[d]imidazole-6-sulfonamide]: -69.6% and -158%.
The matching figures for `O=[N+]([O-])c1ccc(-c2nc(-c3cc4ccccc4o3)cs2)o1` [VPC-18-49, 4-(Benzofuran-2-yl)-2-(5-nitrofuran-2-yl)thiazole]: -48% and -21%.
Regarding `Cn1c(-c2ccc(N3CC4CC3CO4)o2)nc2ccccc21` (stereo not shown) [VPC-18-50, 5-(5-(1-Methyl-1H-benzo[d]imidazol-2-yl)furan-2-yl)-2-oxa-5-azabicyclo[2.2.1]heptane], the inhibition at 10 µM was -26.6% and the inhibition at 30 µM was 27.5%.
For `O=[N+]([O-])c1ccc2cc(-c3csc(-c4ccco4)n3)oc2c1` [VPC-18-52, 2-(Furan-2-yl)-4-(6-nitrobenzofuran-2-yl)thiazole], the inhibition at 10 µM is -15.8% and the inhibition at 30 µM is -46%.
The matching figures for `O=[N+]([O-])c1ccc(-c2nc(-c3cc4ccc(F)cc4o3)cs2)o1` [VPC-18-54, 4-(6-Fluorobenzofuran-2-yl)-2-(5-nitrofuran-2-yl)thiazole]: -60% and -45%.
As for `O=[N+]([O-])c1ccc2cc(-c3csc(-c4ccc(F)cc4F)n3)oc2c1` [VPC-18-55, 2-(2,4-Difluorophenyl)-4-(6-nitrobenzofuran-2-yl)thiazole], the inhibition at 10 µM is -9.94% and the inhibition at 30 µM was -54%.
For `Cn1c(-c2csc(-c3ccc(Br)cc3F)n2)nc2ccc(F)cc21` [VPC-18-56, 2-(4-Bromo-2-fluorophenyl)-4-(6-fluoro-1-methyl-1H-benzo[d]imidazol-2-yl)thiazole], the “% BRN2 Inhibition (10 μM)” value was “INACTIVE” and the “% BRN2 Inhibition (30 μM)” value is “INACTIVE”.
`Cc1c(-c2csc(-c3ccc(Br)cc3F)n2)oc2cc(F)ccc12` [VPC-18-57, 2-(4-Bromo-2-fluorophenyl)-4-(6-fluoro-3-methylbenzofuran-2-yl)thiazole]: the “% BRN2 Inhibition (10 μM)” value is recorded as “INACTIVE” and the “% BRN2 Inhibition (30 μM)” value is “INACTIVE”.
Turning to `Cn1c(-c2ccc(C3CCCO3)o2)nc2ccccc21` (stereo not shown) [VPC-18-58, 1-Methyl-2-(5-(tetrahydrofuran-2-yl)furan-2-yl)-1H-benzo[d]imidazole], the “% BRN2 Inhibition (10 μM)” value was “INACTIVE” and the “% BRN2 Inhibition (30 μM)” value is given as “INACTIVE”.
Turning to `Clc1cc(Br)ccc1-c1nc(-c2cc3ccccc3o2)cs1` [VPC-18-59, 4-(Benzofuran-2-yl)-2-(4-bromo-2-chlorophenyl)thiazole], the “% BRN2 Inhibition (10 μM)” value is “INACTIVE” and the “% BRN2 Inhibition (30 μM)” value is listed as “INACTIVE”.
On to `Cn1c(-c2ccc(-c3ccc(Br)cc3Cl)o2)nc2ccccc21` [VPC-18-60], for which the inhibition at 10 µM turned out to be 13% and the inhibition at 30 µM is -37%.
The matching figures for `Cn1c(-c2ccc(-c3ccccc3)o2)nc2ccc(C(F)(F)F)cc21` [VPC-18-61]: -97% and -92%.
Consider `Cn1c(-c2ccc(-c3ccc(C#N)cc3)o2)nc2ccccc21` [VPC-18-62], for which the inhibition at 10 µM was -62% and the inhibition at 30 µM is -110%.
For `Cn1c(-c2ccc(-c3cccnc3)o2)nc2ccc(C(F)(F)F)cc21` [VPC-18-64], the inhibition at 10 µM was -30% and the inhibition at 30 µM is -59%.
Regarding `Cn1c(-c2ccc(-c3ccccc3F)o2)nc2ccc(C(F)(F)F)cc21` [VPC-18-65], the inhibition at 10 µM was -52% and the inhibition at 30 µM was -3%.
As for `Cn1c(-c2ccc(C3=CCNCC3)o2)nc2ccccc21` [VPC-18-67], the inhibition at 10 µM was -38% and the inhibition at 30 µM was determined as 8%.
As for `CN1CCC(c2ccc(-c3nc4ccccc4n3C)o2)CC1` [VPC-18-68], the inhibition at 10 µM was 11% and the inhibition at 30 µM came to 14%.
Take `Cn1c(-c2ccc(-c3ccc(F)cc3F)o2)nc2ccc(C(F)(F)F)cc21` [VPC-18-69]: the inhibition at 10 µM was -8% and the inhibition at 30 µM came out at 12%.
Consider `Cl.Cn1c(-c2ccc(C3=CCNCC3)o2)nc2ccc(C(F)(F)F)cc21` [VPC-18-70, 1-methyl-2-(5-(1,2,3,6-tetrahydropyridin-4-yl)furan-2-yl)-6-(trifluoromethyl)-1H-benzo[d]imidazole hydrochloride], for which the “cell death (30 μM)” value is on record as “cell death”, the inhibition at 10 µM was 74% and the inhibition at 30 µM was 100%.
Consider `Cn1c(-c2ccc(N3CCC(F)(F)CC3)o2)nc2ccc(C(F)(F)F)cc21` [VPC-18-79], for which the inhibition at 10 µM is -12.3% and the inhibition at 30 µM stood at 2.4%.
Turning to `NC(=O)c1ccc2cc(-c3csc(-c4ccco4)n3)oc2c1` [VPC-18-83], the inhibition at 10 µM is -40% and the inhibition at 30 µM is -10%.
Consider `Cl.Clc1ccc2cc(-c3csc(C4=CCNCC4)n3)oc2c1` [VPC-18-95, 4-(6-chlorobenzofuran-2-yl)-2-(1,2,3,6-tetrahydropyridin-4-yl)thiazole hydrochloride], for which the “cell death (30 μM)” value is listed as “cell death”, the inhibition at 10 µM is 79.8% and the inhibition at 30 µM stood at 100%.
Regarding `Clc1ccc2cc(-c3csc(C4=CCNCC4)n3)oc2c1` [VPC-18-97, 4-(6-chlorobenzofuran-2-yl)-2-(1,2,3,6-tetrahydropyridin-4-yl)thiazole], the “% BRN2 Inhibition (10 μM)” value is 65% and the “% BRN2 Inhibition (30 μM)” value stood at 99.95%.
On to `FC(F)(F)c1cccc2oc(-c3csc(-c4ccco4)n3)cc12` [VPC-18-101], for which the inhibition at 10 µM was -81% and the inhibition at 30 µM is -43%.
As for `O=C(NC1(c2ccco2)CC1)c1cc2ccc(C(F)(F)F)cc2o1` [VPC-18-119], the inhibition at 10 µM amounted to 69.9% and the inhibition at 30 µM is -25%.
